The values that follow come from patent publication US9095524B2, “Customized compositions and uses thereof” (Bond University Ltd., priority 2011, dated 2015).

The test system of the test is HMSCs. The test can be described thus: Calcium deposition (osteogenic differentiation) with purmorphamine. Format: cell-based, human. To be noted: 2 μM purmorphamine added directly into differentiation media, hMSCs on polystyrene culture plate (PS).

Consider `c1ccc2c(Oc3nc(Nc4ccc(N5CCOCC5)cc4)c4ncn(C5CCCCC5)c4n3)cccc2c1` [purmorphamine], for which the calcium deposition result is given as “significant increase in calcium deposition”.
